Source: article PMC9228987, “Antiproliferative Activity of a New Quinazolin-4(3H)-One Derivative via Targeting Aurora Kinase A in Non-Small Cell Lung Cancer” (Pharmaceuticals, 2022)

What was measured:
HCC827 cells = test: SRB cell proliferation assay; details: Homo sapiens, HCC827, 72 h, read-out: IC50 value, HCC827
Protocol: (§3) The human non-small lung cancer cell lines A549, NCI-H1975, NCI-H1299, and NCI-H1993 were purchased from the American Type Culture Collection (Manassas, VA, USA). The human non-small cell lung cancer cell lines HCC827, PC9, HCC827-gef and PC9-gef were a kind gift from Dr. Jae Cheol Lee and Dr. Jin Kyung Rho (Asan Medical Center, Seoul, Korea). […] Cells were incubated at 37 °C in a humidified atmosphere with 5% CO2.
(§4) Cell viability was measured using the SRB method as described previously [58]. Briefly, cells were seeded with different concentrations of compounds and incubated for 72 h. After 72 h incubation, cells were fixed with 10% TCA for 30 min at 4 °C and stained with 0.4% (w/v) SRB in 1% acetic acid for 2 h at room temperature.

H1993 cells = test: SRB cell proliferation assay; details: Homo sapiens, NCI-H1993, 72 h, read-out: IC50 value, H1993
Protocol: as §3, §4

HCC827-gef cells = test: SRB cell proliferation assay; details: Homo sapiens, 72 h, read-out: IC50 value, HCC827-gef
Protocol: as §3, §4

PC9 cells = test: SRB cell proliferation assay; details: Homo sapiens, PC-9, 72 h, read-out: IC50 value, PC9
Protocol: as §3, §4

H1299 cells = test: SRB cell proliferation assay; details: Homo sapiens, NCI-H1299, 72 h, read-out: IC50 value, H1299
Protocol: as §3, §4

PC9-gef cells = test: SRB cell proliferation assay; details: Homo sapiens, 72 h, read-out: IC50 value, PC9-gef
Protocol: as §3, §4

H1975 cells [1] = test: SRB cell proliferation assay; details: Homo sapiens, NCI-H1975, 72 h, read-out: IC50 value, H1975
Protocol: as §3, §4

A549 cells = test: SRB cell proliferation assay; details: Homo sapiens, A549, 72 h, read-out: IC50 value, A549
Protocol: as §3, §4

H1975 cells [2] = test: Annexin V-FITC/PI double staining (flow cytometry); assay type: cell-based, human
Protocol: Cells were treated with samples for 72 h and stained with an Annexin V-FITC apoptosis detection kit (BD Biosciences, San Jose, CA, USA) according to the manufacturer’s instructions. Briefly, cells were collected after 72 h treatment, washed with PBS, resuspended in 1× binding buffer, and stained with Annexin V-FITC and PI in the dark for 15 min. After incubation, the cells were diluted with 1× binding buffer and analyzed using an FACSCalibur flow cytometer (BD Biosciences, San Jose, CA, USA) and BD CellQuest^TM Pro version 6.0 software (BD Biosciences, San Jose, CA, USA).

[3] = system: cdc25C, cdc2, and p21 proteins; test: Western blotting of cell cycle regulators in H1975 cells; assay type: cell-based, human; details: H1975, 24 h
Text: (§1) The cells were collected and lysed in sample loading buffer (Bio-Rad, Hercules, CA, USA). Total protein concentrations were quantified using a BCA Protein Assay Kit (Thermo Fisher Scientific, Waltham, MA, USA). Quantified proteins were loaded onto SDS-polyacrylamide gels and separated by molecular weight via electrophoresis (PAGE). Then, proteins were transferred to polyvinylidene fluoride membranes (Millipore, Bedford, MA, USA); 5% BSA in Tris-buffered saline containing 0.1% Tween-20 (TBST) was used for blocking. The membranes were blocked for 30 min at room temperature with mild shaking, then incubated with antibodies diluted in 2.5% BSA in TBST overnight at 4 °C with mild shaking. Following secondary antibody incubation and washing with TBST, the chemiluminescence signals were detected using the WEST-Queen detection system (iNtRON Biotechnology, Seongnam, Korea) and LAS-4000 (Fuji Film Corp., Tokyo, Japan).

[4] = molecular target: T1, Recombinant human aurora B protein (Homo sapiens, UniProt Q96GD4); test: Cell-free aurora kinase assay (ADP-Glo); assay type: biochemical; details: myelin basic protein substrate, read-out: Aurora Kinase B Inhibition (IC50)
T1 construct: purchased Abcam ab51435
T1 sequence (Q96GD4 whole entry): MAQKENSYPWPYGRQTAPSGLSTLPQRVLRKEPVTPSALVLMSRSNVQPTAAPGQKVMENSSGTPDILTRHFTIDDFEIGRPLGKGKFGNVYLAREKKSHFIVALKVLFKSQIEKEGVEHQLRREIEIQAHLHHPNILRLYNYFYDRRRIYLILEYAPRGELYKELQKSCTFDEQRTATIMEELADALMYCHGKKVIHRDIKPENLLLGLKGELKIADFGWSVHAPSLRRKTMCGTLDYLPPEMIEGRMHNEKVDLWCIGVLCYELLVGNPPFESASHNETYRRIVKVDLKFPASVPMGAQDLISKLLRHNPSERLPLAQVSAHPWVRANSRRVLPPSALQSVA
Protocol: (§2) Aurora A kinase activity was measured using an ADP-Glo™ Kinase assay kit (Promega, USA, Catalog No. # PAV9101). Recombinant human aurora A protein (Active) (ab271368) and Recombinant human aurora B protein (Active) (ab51435) were purchased from Abcam (United States, Boston, MA). […] The ADP-Glo ^TM reagents and kinase detection buffer and substrates were prepared according to the ADP-Glo™ Kinase Assay kit instructions. Luminescence was measured using a microplate reader.

[5] = molecular target: T2, Recombinant human aurora A protein (Homo sapiens, UniProt O14965); test: Cell-free aurora kinase assay (ADP-Glo); assay type: biochemical; details: myelin basic protein substrate, read-out: Aurora Kinase A Inhibition (IC50)
T2 construct: purchased Abcam ab271368
T2 sequence (O14965 1-403): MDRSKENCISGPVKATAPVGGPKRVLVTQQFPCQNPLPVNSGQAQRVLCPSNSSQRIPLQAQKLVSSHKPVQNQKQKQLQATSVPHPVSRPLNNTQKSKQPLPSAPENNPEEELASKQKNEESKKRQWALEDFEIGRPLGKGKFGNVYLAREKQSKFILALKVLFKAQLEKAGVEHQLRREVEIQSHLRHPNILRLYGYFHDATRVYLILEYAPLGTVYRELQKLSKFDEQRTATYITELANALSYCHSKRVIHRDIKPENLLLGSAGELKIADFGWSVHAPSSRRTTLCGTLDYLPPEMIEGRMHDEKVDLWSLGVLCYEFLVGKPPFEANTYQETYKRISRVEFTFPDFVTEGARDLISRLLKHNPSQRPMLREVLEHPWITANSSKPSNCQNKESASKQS
Protocol: as §2

H1975 cells [6] = test: Colony formation assay; assay type: cell-based, human; details: treated 48 h, additional ten days without compound
Protocol: Cells (500 cells/well) were seeded and cultured overnight. The compounds were treated for 48 h, the cells were washed with phosphate buffered saline (PBS), and continued incubation. Culture medium was replaced every three days for ten days. Cells were fixed with 4% paraformaldehyde solution and stained with 0.1% crystal violet.

[7] = system: cleaved PARP, PARP, cleaved caspase-8, and caspase-8 proteins; test: Western blotting of apoptosis-related proteins in H1975 cells; assay type: cell-based, human; details: H1975, 72 h, concentration-dependent
Text: as §1

H1975 cells [8] = test: Cell cycle analysis (PI staining, flow cytometry); assay type: cell-based, human; details: for Sub-G1 cell population: 72 h (Figure 5A)
Protocol: Cells were seeded and starved in serum-free medium overnight. After starvation, the cells were treated with compounds for the indicated times. After incubation, cells were harvested, washed with PBS, and fixed with 70% ethanol in PBS overnight at −20 °C. The fixed cells were washed with PBS, resuspended in 100 µg/mL of RNase A for 30 min at room temperature, and stained with 50 µg/mL PI. Fluorescence intensity was analyzed using a FACSCalibur flow cytometer (BD Biosciences, San Jose, CA, USA) and BD CellQuest^TM Pro version 6.0 software (BD Biosciences, San Jose, CA, USA).

p-aurora kinase A (T288) = test: Western blotting of phospho-aurora kinase A in H1975 cells; assay type: cell-based, human; details: 24 h
Text: as §1

| Structure (SMILES) | IC50 (HCC827 cells) [µM] | IC50 (H1993 cells) [µM] | IC50 (HCC827-gef cells) [µM] | IC50 (PC9 cells) [µM] | IC50 (H1299 cells) [µM] | IC50 (PC9-gef cells) [µM] | IC50 (H1975 cells [1]) [µM] | IC50 (A549 cells) [µM] | also measured |
| --- | --- | --- | --- | --- | --- | --- | --- | --- | --- |
| CCC(=O)Nc1nc2ccc(-c3ccc4ncn(CCc5cc6ccccc6[nH]5)c(=O)c4c3)cc2[nH]1 [FL-4, reference compound] | 4.14 ± 0.64 | 4.57 ± 0.29 | 6.4 ± 0.6 | 15 ± 1.41 | 5.54 ± 0.85 | 6.75 ± 0.71 | 2.81 ± 0.43 | 6.11 ± 1.14 |  |
| CCOC(=O)c1cn2cc(-c3ccc4ncn(Cc5ncccn5)c(=O)c4c3)ccc2n1 [BIQO-19, ethyl 6-(4-oxo-3-(pyrimidin-2-ylmethyl)-3,4-dihydroquinazolin-6-yl)imidazo [1,2-a]pyridine-2-carboxylate] | 4.84 ± 0.17 | 5.5 ± 1.69 | 4.43 ± 0.35 | 16.4 ± 1.44 | 5.3 ± 0.06 | 9.21 ± 0.51 | 4.76 ± 0.17 | 3.63 ± 0.28 | total cell deaths (early apoptosis + late apoptosis + necrosis) (H1975 cells [2]; H1975, 4 μM, 72 h (Figure 5B,C)): 26.67%; early apoptosis fraction (H1975 cells [2]; H1975, 72 h, single vs combination treatment (Figure 6C)): 17.6%; total cell death (H1975 cells [2]; H1975, 72 h, single vs combination treatment (Figure 6D)): 27.1%; cdc25C and cdc2 expression [3]: effectively downregulated; p21 expression [3]: upregulated; IC50 [4]: 0.581 ± 0.0138 µM; IC50 [5]: 0.0685 ± 0.00645 µM; colony formation in H1975 cells (H1975 cells [6]): significant inhibition of colony formation; expression levels of PARP and caspase-8 (inactivated forms) [7]: downregulated; expression levels of cleaved PARP and cleaved caspase-8 (activated forms) [7]: upregulated; Sub-G1 cell population (H1975 cells [8]; H1975, 1 μM): 2.54%; Sub-G1 cell population (H1975 cells [8]; H1975, 2 μM): 2.60%; G2/M cell population (H1975 cells [8]; H1975, 4 μM, 12 h (Figure 4A)): 35.3%; G2/M cell population (H1975 cells [8]; H1975, 4 μM, 24 h (Figure 4A)): 52.0%; Sub-G1 cell population (H1975 cells [8]; H1975, 4 μM): 15.5%; levels of p-aurora kinase A (T288) expression (p-aurora kinase A (T288)): suppressed by BIQO-19 treatment in a concentration-dependent manner |
